Results: patent publication US11104670B2, “4-pyrimidin-5-ylmethyl-morpholine derivatives and the use thereof as medicament” (Boehringer Ingelheim International GmbH, priority 2018, dated 2021)

Experiments:
Type in all cases: cell-based
Nav1.6 channel = Nav1.6 channel (Homo sapiens (Human), UniProt Q9UQD0); experiment: Nav1.6 inhibition, IonWorks Quattro electrophysiology; conditions: for inhibition at 1 µM / Normalized % inhibition at 5 μM / inhibition at 5 µM: normalized to vehicle (0%) and maximal inhibition control (100%)
Sequence of Nav1.6 channel (Q9UQD0 whole entry): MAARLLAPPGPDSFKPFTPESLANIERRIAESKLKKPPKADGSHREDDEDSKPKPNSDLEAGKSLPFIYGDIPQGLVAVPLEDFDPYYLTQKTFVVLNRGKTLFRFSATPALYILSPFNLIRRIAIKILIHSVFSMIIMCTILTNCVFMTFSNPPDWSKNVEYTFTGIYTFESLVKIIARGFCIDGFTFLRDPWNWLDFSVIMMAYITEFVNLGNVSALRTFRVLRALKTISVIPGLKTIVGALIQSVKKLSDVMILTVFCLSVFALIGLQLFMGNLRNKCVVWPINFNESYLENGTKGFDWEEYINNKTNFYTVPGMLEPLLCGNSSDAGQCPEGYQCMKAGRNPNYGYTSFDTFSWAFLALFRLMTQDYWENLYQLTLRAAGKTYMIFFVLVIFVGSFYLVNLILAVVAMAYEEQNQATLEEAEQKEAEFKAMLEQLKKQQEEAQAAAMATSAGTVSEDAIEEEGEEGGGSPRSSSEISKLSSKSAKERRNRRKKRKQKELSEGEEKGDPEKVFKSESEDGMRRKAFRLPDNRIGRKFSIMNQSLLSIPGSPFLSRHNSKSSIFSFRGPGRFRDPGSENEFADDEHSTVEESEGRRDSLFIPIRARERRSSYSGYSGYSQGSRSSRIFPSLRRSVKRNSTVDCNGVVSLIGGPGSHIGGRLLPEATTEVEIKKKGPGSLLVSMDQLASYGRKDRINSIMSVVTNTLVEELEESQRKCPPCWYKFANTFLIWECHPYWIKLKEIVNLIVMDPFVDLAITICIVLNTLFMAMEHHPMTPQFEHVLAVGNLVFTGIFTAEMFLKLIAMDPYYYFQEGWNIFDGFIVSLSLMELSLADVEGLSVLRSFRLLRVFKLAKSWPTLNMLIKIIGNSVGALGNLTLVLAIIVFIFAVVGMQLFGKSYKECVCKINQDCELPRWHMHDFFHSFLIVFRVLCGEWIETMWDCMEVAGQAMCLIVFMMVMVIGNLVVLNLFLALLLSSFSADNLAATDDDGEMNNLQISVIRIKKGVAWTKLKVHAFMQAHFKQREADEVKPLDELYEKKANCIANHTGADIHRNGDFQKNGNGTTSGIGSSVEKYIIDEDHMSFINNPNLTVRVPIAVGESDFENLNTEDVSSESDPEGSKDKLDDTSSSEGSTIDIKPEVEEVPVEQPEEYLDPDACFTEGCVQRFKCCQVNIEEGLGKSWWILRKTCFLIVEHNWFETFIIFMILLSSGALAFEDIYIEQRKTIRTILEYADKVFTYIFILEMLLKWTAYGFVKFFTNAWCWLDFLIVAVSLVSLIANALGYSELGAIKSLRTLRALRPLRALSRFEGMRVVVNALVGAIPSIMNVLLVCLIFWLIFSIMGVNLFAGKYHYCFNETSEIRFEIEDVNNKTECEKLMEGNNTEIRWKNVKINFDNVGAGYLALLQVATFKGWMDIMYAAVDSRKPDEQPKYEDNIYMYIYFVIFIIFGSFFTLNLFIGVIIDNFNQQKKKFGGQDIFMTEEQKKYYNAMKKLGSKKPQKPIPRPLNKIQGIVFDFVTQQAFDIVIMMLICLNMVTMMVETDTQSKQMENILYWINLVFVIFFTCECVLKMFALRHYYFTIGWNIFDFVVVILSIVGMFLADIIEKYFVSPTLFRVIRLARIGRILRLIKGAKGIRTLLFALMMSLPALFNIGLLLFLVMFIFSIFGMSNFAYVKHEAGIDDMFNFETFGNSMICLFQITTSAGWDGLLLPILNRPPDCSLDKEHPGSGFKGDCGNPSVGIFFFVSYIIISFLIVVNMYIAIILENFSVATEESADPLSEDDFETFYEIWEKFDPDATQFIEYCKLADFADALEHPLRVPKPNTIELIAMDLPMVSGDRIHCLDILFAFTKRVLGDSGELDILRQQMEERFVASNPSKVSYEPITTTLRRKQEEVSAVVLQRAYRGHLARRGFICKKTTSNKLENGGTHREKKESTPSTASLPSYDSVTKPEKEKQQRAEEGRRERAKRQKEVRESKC
Description: Ion Works Quattro electrophysiological platform
The compounds were prepared in DMSO at 300× the final assay concentrations of 1 and 5 μM.
The 300× DMSO stock solutions were transferred into assay plates where 2 μl per well of each 300× stock solution were placed. All assay plates were stored at −80° C. until the day of assay.
On the day of the assay, the appropriate assay plate was thawed at room temperature, centrifuged, and 198 μl of external recording solution was added and mixed thoroughly. This provided a 1:100 dilution. A further 1:3 dilution occurred upon addition to the cells in the IonWorks Quattro electrophysiological platform, giving a 1:300 dilution in total.
On each assay plate, at least 8 wells were reserved for vehicle control (0.3% DMSO) and at least 8 wells for each positive control specific to the cell line tested. The positive controls were tested at a maximal blocking and an approximate IC50 concentration. As positive control Lidocaine at concentrations of 30 and 1000 μM was used.
Amphotericin B was used to obtain electrical access to the cell interior at a final concentration of 200 μg/ml in internal recording solution.
State-dependent inhibition: Sodium channels when held at depolarized potential or long test pulse, the channels open and inactivate and then stay inactivated until the membrane potential is stepped back to hyperpolarized potentials, when the inactivated channels recover from inactivation into closed state.
Cells were held at −120 mV. In order to completely inactivate the sodium channels (pulse 1), the cells were pulsed to +0 mV for 2500 ms and stepped back to −120 mV for 10 ms (to completely recover from inactivation, however channels that had drugs bound to them will not recover from inactivation) before stepping to +0 mV for 20 ms (pulse 2).
Both the positive and vehicle control data associated with each cell line assayed are shown below as an example. The mean is shown for each positive and negative control as solid symbol with the total number of individual well replicates given next to the solid symbol. In addition, the individual data of each well are shown on the graph as open symbols so that the variation about the mean value can be readily assessed.
In FIG. 2, a Post/Pre value of 1.0 corresponds to 0% inhibition, a Post/Pre value of 0.0 corresponds to 100% inhibition.
Tables 3 and 4 show the normalized percentage inhibition of Nav1.6 channel. […] (see also the figure Assay Control Results above).

NMDA NR1/NR2B receptor [1] = molecular target: NMDA NR1/NR2B receptor (Homo sapiens (Human), UniProt Q13224); experiment: NMDA NR1/NR2B FLIPR calcium assay in HEK293 cells; conditions: glycine/glutamate-induced calcium, read-out: IC50, in vitro NR2B affinity in the FLIPR assay
Sequence of NMDA NR1/NR2B receptor (Homo sapiens (Human), UniProt Q13224) (Q13224 27-1484, other chains not shown): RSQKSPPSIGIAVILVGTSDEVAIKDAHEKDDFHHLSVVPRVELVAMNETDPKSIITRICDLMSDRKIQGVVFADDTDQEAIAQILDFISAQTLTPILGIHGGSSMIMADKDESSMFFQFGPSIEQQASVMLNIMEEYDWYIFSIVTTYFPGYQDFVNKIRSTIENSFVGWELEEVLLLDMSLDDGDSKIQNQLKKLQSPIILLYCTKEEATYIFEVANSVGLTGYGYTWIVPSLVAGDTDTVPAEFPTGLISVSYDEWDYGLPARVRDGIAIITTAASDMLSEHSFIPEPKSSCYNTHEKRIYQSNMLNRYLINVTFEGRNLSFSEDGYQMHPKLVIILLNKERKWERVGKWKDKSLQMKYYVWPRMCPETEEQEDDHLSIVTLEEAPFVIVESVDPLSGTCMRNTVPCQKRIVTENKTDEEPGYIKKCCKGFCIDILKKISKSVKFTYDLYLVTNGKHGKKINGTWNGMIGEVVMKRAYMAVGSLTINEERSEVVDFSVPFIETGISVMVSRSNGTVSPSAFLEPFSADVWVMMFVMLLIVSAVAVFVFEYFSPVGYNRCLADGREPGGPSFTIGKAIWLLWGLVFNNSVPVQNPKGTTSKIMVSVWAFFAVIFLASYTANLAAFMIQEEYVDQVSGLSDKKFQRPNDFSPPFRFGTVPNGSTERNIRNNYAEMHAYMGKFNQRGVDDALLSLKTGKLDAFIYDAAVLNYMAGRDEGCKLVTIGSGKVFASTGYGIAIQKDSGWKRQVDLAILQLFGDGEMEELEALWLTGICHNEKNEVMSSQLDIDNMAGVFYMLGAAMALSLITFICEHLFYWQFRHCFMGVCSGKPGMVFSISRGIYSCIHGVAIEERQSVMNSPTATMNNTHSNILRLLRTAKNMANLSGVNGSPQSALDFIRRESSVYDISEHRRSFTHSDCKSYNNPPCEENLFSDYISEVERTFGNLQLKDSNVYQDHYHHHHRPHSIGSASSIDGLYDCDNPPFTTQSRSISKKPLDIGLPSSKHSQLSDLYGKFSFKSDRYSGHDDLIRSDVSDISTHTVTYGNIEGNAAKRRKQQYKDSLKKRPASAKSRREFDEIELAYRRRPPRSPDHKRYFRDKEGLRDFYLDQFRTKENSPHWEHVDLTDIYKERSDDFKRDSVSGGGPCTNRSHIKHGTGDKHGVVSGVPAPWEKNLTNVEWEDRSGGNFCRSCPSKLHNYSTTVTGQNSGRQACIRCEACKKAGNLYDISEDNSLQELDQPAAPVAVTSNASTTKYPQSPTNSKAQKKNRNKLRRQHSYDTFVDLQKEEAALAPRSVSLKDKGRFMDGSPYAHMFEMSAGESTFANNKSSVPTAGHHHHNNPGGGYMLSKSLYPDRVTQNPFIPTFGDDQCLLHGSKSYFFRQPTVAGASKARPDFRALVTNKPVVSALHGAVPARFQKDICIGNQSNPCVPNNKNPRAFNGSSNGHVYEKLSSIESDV
Description: (§1) A human HEK293 cell line with tetracyclin-inducible expression of NMDA NR1/NR2B receptor was used as a test system for compound efficacy and potency. The cell line was purchased from ChanTest, Catalog #CT6121. Compound activity was determined by measuring the effect of compounds on intracellular calcium concentration induced by glycine/glutamate agonism in a FLIPRtetra system (Molecular Devices).
(§2) The cells were obtained as frozen cells in cryo-vials and stored until use at −150° C. Cells were grown in culture medium (DMEM/F12, 10% FBS, 5 μg/mL Blasticidin, 150 μg/mL Zeozin, 500 μg/mL Geneticin). […] For sub-culturing the cells were detached from flasks by Versene. For the assay, cells were detached, washed twice with induction medium (DMEM/F12 without glutamine, 10% FBS, 2 μg/mL Tetracycline, 2 mM Ketamine) and seeded to 384 well pure coat amine plates (Becton Dickinson, 50000 cells per well in 50 μl) 48 h prior to assay in induction medium.
(§3) The test compounds were dissolved in 100% DMSO at a concentration of 10 mM and in a first step diluted in DMSO to a concentration of 5 mM, followed by serial dilution steps in 100% DMSO. Dilution factor and number of dilution steps may vary according to needs. Typically 8 different concentrations by 1:5 dilutions were prepared in duplicate, further intermediate dilutions (1:37.5) of the substances were carried out with aqueous assay buffer (137 mM NaCl, 4 mM KCl, 1.8 mM CaCl2), 10 mM HEPES, 10 mM Glucose, pH 7.4) resulting in a compound concentration 3 times above the final test concentration and DMSO at 2.7% resulting in 0.9% final DMSO concentration in the assay.
(§4) At the assay day cells were washed 3× with assay buffer (as described above), 10 μL buffer remained in the wells after washing. 10 μL Ca kit loading buffer (AAT Bioquest; prepared from the kit containing the following components: Component A: Fluo-8 NW dissolved in 200 μL DMSO and 20 μl of this solution are mixed with 10 ml buffer prepared out of component B and C, Component B: 10× Pluronic® F127 Plus diluted 1:10 in component C, Component C: HHBS (Hanks with 20 mM Hepes) was added to the cells and the plates were incubated with lid for 60 minutes at room temperature. 20 μl assay buffer containing 60 μM glycine (20 μM final) and 3 μM glutamate (1 μM final) was added to column 1-23, column 24 got assay buffer without glycine/glutamate to serve as negative unstimulated control. Fluorescence (indicating the calcium influx as a result of the NR1/NR2B ion channel activation) was read on the FLIPRtetra device for 60 seconds to monitor the glutamate induced effects. After 2 minutes 20 μL of compound dilution prepared as described above or controls (row 1-22) in assay buffer were carefully added to the wells. […] The average of 2 measurements at 5 minutes and 5 min 10 seconds after compound addition is calculated and further used for IC50 calculations. Each assay microtiter compound dilution plate contained wells (in column 23 or 24) with DMSO controls instead of compound as controls for glycine/glutamate induced fluorescence (high controls) and wells with 1 μM of a reference NR2B NAM as low controls (Compound 22; reference: Layton, Mark E et al, ACS Chemical Neuroscience 2011, 2(7), 352-362).
(§5) The output file of the reader contains the well number and measured average fluorescence units. For data evaluation and calculation, the measurement of the low control was set as 0% control and the measurement of the high control was set as 100% control. The IC50 values were calculated using the standard 4 parameter logistic regression formula. Calculation: [y=(a−d)/(1+(x/c)^b)+d], a=low value, d=high value; x=conc M; c=IC50 M; b=slope.

NMDA NR1/NR2B receptor [2] = molecular target: NMDA NR1/NR2B receptor (Homo sapiens (Human), UniProt Q05586+Q13224); experiment: NMDA NR1/NR2B FLIPR calcium assay in HEK293 cells; conditions: glycine/glutamate-induced calcium, read-out: IC50, in vitro NR2B affinity in the FLIPR assay
Sequence of NMDA NR1/NR2B receptor (Homo sapiens (Human), UniProt Q05586+Q13224) (Q13224 27-1484, other chains not shown): as above
Description: as §1, §2, §3, §4, §5

Row | IC50 (NMDA NR1/NR2B receptor [1]) | SMILES | IC50 (NMDA NR1/NR2B receptor [2]) | inhibition at 1 µM (Nav1.6 channel) | Normalized % inhibition at 5 μM (Nav1.6 channel) | inhibition at 5 µM (Nav1.6 channel) | other results
1 |  | CCN(CC)CC(=O)Nc1c(C)cccc1C [Lidocaine, reference compound] |  |  |  |  | inhibition of evoked Nav1.6 currents (in words) (Nav1.6 channel; assay control, 30 and 1000 μM): inhibited evoked currents in a concentration and use dependent manner; inhibition at 1000 µM (Nav1.6 channel; read-out: maximum inhibition at P1 (not normalized)): 46.4 to 47.2%
2 | 362 nM | CNC(=O)[C@@H]1CN(Cc2cnc(Oc3c(F)cccc3F)nc2)CCO1 [Example 34] |  |  |  |  | 
3 | 933 nM | CNC(=O)[C@@H]1CN(Cc2cnc(Oc3c(C)cccc3F)nc2)CCO1 [Example 35] |  |  |  |  | 
4 |  | CCCCNc1ccc(C(=O)OCCN(C)C)cc1 [Tetracaine, reference compound] |  |  |  |  | state-dependent inhibition of Nav1.6 (in words) (Nav1.6 channel; depolarized vs hyperpolarized potential): much stronger at depolarized potentials than at hyperpolarized potential
5 |  | O=C(NCc1ccccn1)C1CN(Cc2cccc(Oc3ccccc3)c2)CCO1 (stereo not drawn) [Example 105, reference compound] | > 9260 nM | 18.2% | 68% | 68% | 
6 | 509 nM | CNC(=O)[C@@H]1CN(Cc2cnc(Oc3ccccc3)nc2)CCO1 [Example 33] |  |  |  |  | 
7 |  | O=C(C1CN(Cc2cccc(Oc3ccccc3)c2)CCO1)N1CCOCC1 (stereo not drawn) [Example 106, reference compound] | > 9260 nM | -0.7% | 14% | 14% | 
8 |  | CCNC(=O)C1CN(Cc2cccc(Oc3ccccc3)c2)CCO1 (stereo not drawn) [Example 100, reference compound] | > 8890 nM | 2.2% | 37.8% | 37.8% | 
